According to patent US20260022142A1, “MACROCYCLIC IMMUNOMODULATORS” (Bristol-Myers Squibb Company, priority 2022, published 2026):
Bridge positions count the residues as written; N and C are the ends. Square brackets hold non-standard residues; d marks the D form. Peptide text beside a SMILES is read from it. * marks the point of attachment. ξ: configuration not given here. Phe(3-CF3) = N[C@@H](Cc1cccc(C(F)(F)F)c1)C(=O)O; Phe(4-COOH) = N[C@@H](Cc1ccc(C(=O)O)cc1)C(=O)O; Bip = N[C@@H](Cc1ccc(-c2ccccc2)cc1)C(=O)O; NH(CH2)14COOH = O=C(O)CCCCCCCCCCCCCCN*; Phe(3-Me) = Cc1cccc(C[C@H](N)C(=O)O)c1; NH(CH2)12COOH = O=C(O)CCCCCCCCCCCCN*; Val(3-OH) = CC(C)(O)[C@H](N)C(=O)O; Cha = N[C@@H](CC1CCCCC1)C(=O)O; Thr(3ξ) = CC(O)[C@H](N)C(=O)O; Carboxymethyl = O=C(O)C*; Nle = CCCC[C@H](N)C(=O)O; Orn = NCCC[C@H](N)C(=O)O; Dab = NCC[C@H](N)C(=O)O; AEEA = NCCOCCOCC(=O)O

biological target: T1, PD-1/PD-L1 interaction (PE-labeled human PD-L1-Ig binding to Jurkat cell line over-expressing human PD-1) (Homo sapiens, UniProt Q15116); assay: Jurkat-PD-1 Cell Binding High-Content Screening Assay (CBA); type: cell-based; conditions: Jurkat cell line over-expressing human PD-1; PE-labeled PD-L1-Ig 20 nM final; read-out: Jurkat hPD1-PDL1 IC50
T1 construct: expressed in transfected cells; host or cells: Jurkat
How it was run: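 First, compound is added to PD-1-expressing Jurkat cells in serum-containing DMEM and left 2 h at 37° C. Next, PE-conjugated PD-L1-Ig is introduced at 20 nM final concentration for 1 hour. Finally, cells are fixed in 4% paraformaldehyde with Hoechst 33342, washed and imaged.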

T1 sequence (Q15116 25-288): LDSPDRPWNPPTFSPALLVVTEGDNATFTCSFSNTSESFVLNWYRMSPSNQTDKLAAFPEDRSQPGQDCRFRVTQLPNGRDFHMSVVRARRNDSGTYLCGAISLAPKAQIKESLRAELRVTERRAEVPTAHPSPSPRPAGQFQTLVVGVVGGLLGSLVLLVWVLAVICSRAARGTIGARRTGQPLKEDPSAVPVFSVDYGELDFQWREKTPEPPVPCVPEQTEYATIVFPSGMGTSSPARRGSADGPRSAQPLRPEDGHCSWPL

First: CC(C)C[C@H]1NC(=O)[C@H](CCCN)NC(=O)[C@H](Cc2ccc(C(=O)O)cc2)NC(=O)[C@H](Cc2ccc(-c3ccccc3)cc2)NC(=O)[C@H](Cc2ccc(C(=O)O)cc2)NC(=O)[C@H](Cc2cccc(C(F)(F)F)c2)NC(=O)[C@H](CC(=O)O)NC(=O)[C@H](Cc2ccc(OCC(=O)O)cc2)NC(=O)[C@H](Cc2ccc(OCC(=O)O)cc2)NC(=O)CSC[C@@H](C(=O)N[C@@H](CCN)C(=O)NCCOCCOCC(=O)NCCOCCOCC(=O)NCCCCCCCCCCCCCCC(=O)O)NC(=O)[C@H](CO)NC(=O)[C@H](C(C)(C)O)NC(=O)[C@H](CC2CCCCC2)NC(=O)[C@H](CCN)NC1=O [Compound 3839] ({CH2CO}-Y(Carboxymethyl)Y(Carboxymethyl)D[Phe(3-CF3)][Phe(4-COOH)][Bip][Phe(4-COOH)][Orn][dL][Dab][Cha][Val(3-OH)]SC[Dab][AEEA][AEEA]-{NH(CH2)14COOH}; thioether N-14)
Second: CC(C)C[C@H]1NC(=O)[C@H](Cc2cnc[nH]2)NC(=O)[C@H](Cc2ccc(C(=O)O)cc2)NC(=O)[C@H](Cc2ccc(-c3ccccc3)cc2)NC(=O)[C@H](Cc2ccc(C(=O)O)cc2)NC(=O)[C@H](Cc2cccc(C(F)(F)F)c2)NC(=O)[C@H](CC(=O)O)NC(=O)[C@H](Cc2ccc(OCC(=O)O)cc2)NC(=O)[C@H](Cc2ccc(OCC(=O)O)cc2)NC(=O)CSC[C@@H](C(=O)N[C@@H](CCN)C(=O)NCCOCCOCC(=O)NCCOCCOCC(=O)NCCCCCCCCCCCCCCC(=O)O)NC(=O)[C@H](CO)NC(=O)[C@H](C(C)(C)O)NC(=O)[C@H](CC2CCCCC2)NC(=O)[C@H](CCN)NC1=O [Compound 3840] ({CH2CO}-Y(Carboxymethyl)Y(Carboxymethyl)D[Phe(3-CF3)][Phe(4-COOH)][Bip][Phe(4-COOH)]H[dL][Dab][Cha][Val(3-OH)]SC[Dab][AEEA][AEEA]-{NH(CH2)14COOH}; thioether N-14)
The IC50 of the first is 1.9-fold lower: 178 nM for the first, 340 nM for the second.

Compared with `CCCC[C@@H]1NC(=O)CSC[C@@H](C(=O)N[C@@H](CCN)C(=O)NCCOCCOCC(=O)NCCCCCCCCCCCCC(=O)O)NC(=O)[C@H](CO)NC(=O)[C@H](C(C)(C)O)NC(=O)[C@H](CC2CCCCC2)NC(=O)[C@H](CCN)NC(=O)[C@@H](CC(C)C)NC(=O)[C@H](CCCN)NC(=O)[C@H](Cc2ccc(C(=O)O)cc2)NC(=O)[C@H](Cc2ccc(-c3ccccc3)cc2)NC(=O)[C@H](Cc2ccc(C(=O)O)cc2)NC(=O)[C@H](Cc2cccc(C)c2)NC(=O)[C@H](CC(=O)O)NC(=O)[C@H](Cc2ccc(OCC(=O)O)cc2)NC1=O` [Compound 3841] ({CH2CO}-[Nle]Y(Carboxymethyl)D[Phe(3-Me)][Phe(4-COOH)][Bip][Phe(4-COOH)][Orn][dL][Dab][Cha][Val(3-OH)]SC[Dab][AEEA]-{NH(CH2)12COOH}; thioether N-14), `Cc1cccc(C[C@@H]2NC(=O)[C@H](CC(=O)O)NC(=O)[C@H](Cc3ccc(OCC(=O)O)cc3)NC(=O)[C@H](Cc3ccc(OCC(=O)O)cc3)NC(=O)CSC[C@@H](C(=O)N[C@@H](CCN)C(=O)NCCOCCOCC(=O)NCCCCCCCCCCCCC(=O)O)NC(=O)[C@H](CO)NC(=O)[C@H](C(C)(C)O)NC(=O)[C@H](CC3CCCCC3)NC(=O)[C@H](CCN)NC(=O)[C@@H](CC(C)C)NC(=O)[C@H](CCCN)NC(=O)[C@H](Cc3ccc(C(=O)O)cc3)NC(=O)[C@H](Cc3ccc(-c4ccccc4)cc3)NC(=O)[C@H](Cc3ccc(C(=O)O)cc3)NC2=O)c1` [Compound 3842] ({CH2CO}-Y(Carboxymethyl)Y(Carboxymethyl)D[Phe(3-Me)][Phe(4-COOH)][Bip][Phe(4-COOH)][Orn][dL][Dab][Cha][Val(3-OH)]SC[Dab][AEEA]-{NH(CH2)12COOH}; thioether N-14) is 2.1-fold lower in IC50: 34.1 nM for the first, 16.1 nM for the second.

Compared with `Cc1cccc(C[C@@H]2NC(=O)[C@H](CC(=O)O)NC(=O)[C@H](Cc3ccc(OCC(=O)O)cc3)NC(=O)[C@H](C(C)O)NC(=O)CSC[C@@H](C(=O)N[C@@H](CCN)C(=O)NCCOCCOCC(=O)NCCCCCCCCCCCCC(=O)O)NC(=O)[C@H](CC(=O)O)NC(=O)[C@H](C(C)C)NC(=O)[C@H](CC3CCCCC3)NC(=O)[C@H](CCN)NC(=O)[C@@H](CC(C)C)NC(=O)[C@H](CCCN)NC(=O)[C@H](Cc3ccc(C(=O)O)cc3)NC(=O)[C@H](Cc3ccc(-c4ccccc4)cc3)NC(=O)[C@H](Cc3ccc(C(=O)O)cc3)NC2=O)c1` (stereo partly drawn) [Compound 3843] ({CH2CO}-[Thr(3ξ)]Y(Carboxymethyl)D[Phe(3-Me)][Phe(4-COOH)][Bip][Phe(4-COOH)][Orn][dL][Dab][Cha]VDC[Dab][AEEA]-{NH(CH2)12COOH}; thioether N-14), `Cc1cccc(C[C@@H]2NC(=O)[C@H](CC(=O)O)NC(=O)[C@H](Cc3ccc(OCC(=O)O)cc3)NC(=O)[C@H](C(C)O)NC(=O)CSC[C@@H](C(=O)N[C@@H](CCN)C(=O)NCCCCCCCCCCCCC(=O)O)NC(=O)[C@H](CO)NC(=O)[C@H](C(C)(C)O)NC(=O)[C@H](CC3CCCCC3)NC(=O)[C@H](CCN)NC(=O)[C@@H](CC(C)C)NC(=O)[C@H](CCCN)NC(=O)[C@H](Cc3ccc(OCC(=O)O)cc3)NC(=O)[C@H](Cc3ccc(-c4ccccc4)cc3)NC(=O)[C@H](Cc3ccc(OCC(=O)O)cc3)NC2=O)c1` (stereo partly drawn) [Compound 3844] ({CH2CO}-[Thr(3ξ)]Y(Carboxymethyl)D[Phe(3-Me)]Y(Carboxymethyl)[Bip]Y(Carboxymethyl)[Orn][dL][Dab][Cha][Val(3-OH)]SC[Dab]-{NH(CH2)12COOH}; thioether N-14) is 2.7-fold lower in IC50: 40.7 nM for the first, 15.2 nM for the second.

`CC(C)C[C@H]1NC(=O)[C@H](CCCN)NC(=O)[C@H](Cc2ccc(C(=O)O)cc2)NC(=O)[C@H](Cc2ccc(-c3ccccc3)cc2)NC(=O)[C@H](Cc2ccc(C(=O)O)cc2)NC(=O)[C@H](Cc2cccc(C(F)(F)F)c2)NC(=O)[C@H](CC(=O)O)NC(=O)[C@H](Cc2ccc(OCC(=O)O)cc2)NC(=O)[C@H](Cc2ccc(OCC(=O)O)cc2)NC(=O)CSC[C@@H](C(=O)N[C@@H](CCN)C(=O)NCCCCCCCCCCCCCCC(=O)O)NC(=O)[C@H](CC(=O)O)NC(=O)[C@H](C(C)C)NC(=O)[C@H](CC2CCCCC2)NC(=O)[C@H](CCN)NC1=O` [Compound 3848] ({CH2CO}-Y(Carboxymethyl)Y(Carboxymethyl)D[Phe(3-CF3)][Phe(4-COOH)][Bip][Phe(4-COOH)][Orn][dL][Dab][Cha]VDC[Dab]-{NH(CH2)14COOH}; thioether N-14) and `CC(C)C[C@H]1NC(=O)[C@H](CCCN)NC(=O)[C@H](Cc2ccc(C(=O)O)cc2)NC(=O)[C@H](Cc2ccc(-c3ccccc3)cc2)NC(=O)[C@H](Cc2ccc(C(=O)O)cc2)NC(=O)[C@H](Cc2cccc(C(F)(F)F)c2)NC(=O)[C@H](CC(=O)O)NC(=O)[C@H](Cc2ccc(OCC(=O)O)cc2)NC(=O)[C@H](Cc2ccc(OCC(=O)O)cc2)NC(=O)CSC[C@@H](C(=O)N[C@@H](CCN)C(=O)NCCCCCCCCCCCCCCC(=O)O)NC(=O)[C@H](CCC(=O)O)NC(=O)[C@H](C(C)C)NC(=O)[C@H](CC2CCCCC2)NC(=O)[C@H](CCN)NC1=O` [Compound 3849] ({CH2CO}-Y(Carboxymethyl)Y(Carboxymethyl)D[Phe(3-CF3)][Phe(4-COOH)][Bip][Phe(4-COOH)][Orn][dL][Dab][Cha]VEC[Dab]-{NH(CH2)14COOH}; thioether N-14) are within 1.5-fold of each other in IC50: 317 nM for the first, 250 nM for the second.

First: CC(=O)NCCCC[C@@H]1NC(=O)[C@H](C(C)(C)O)NC(=O)[C@H](CC2CCCCC2)NC(=O)[C@H](CCN)NC(=O)[C@@H](CC(C)C)NC(=O)[C@H](CCCN)NC(=O)[C@H](Cc2ccc(OCC(=O)O)cc2)NC(=O)[C@H](Cc2ccc(-c3ccccc3)cc2)NC(=O)[C@H](Cc2ccc(OCC(=O)O)cc2)NC(=O)[C@H](Cc2cccc(C(F)(F)F)c2)NC(=O)[C@H](CC(=O)O)NC(=O)[C@H](Cc2ccc(OCC(=O)O)cc2)NC(=O)[C@H](Cc2ccc(OCC(=O)O)cc2)NC(=O)CSC[C@@H](C(=O)N[C@@H](CCN)C(=O)NCCOCCOCC(=O)NCCCCCCCCCCCCCCC(=O)O)NC1=O [Compound 3850] ({CH2CO}-Y(Carboxymethyl)Y(Carboxymethyl)D[Phe(3-CF3)]Y(Carboxymethyl)[Bip]Y(Carboxymethyl)[Orn][dL][Dab][Cha][Val(3-OH)]K(Ac)C[Dab][AEEA]-{NH(CH2)14COOH}; thioether N-14)
Second: Cc1cccc(C[C@@H]2NC(=O)[C@H](CC(=O)O)NC(=O)[C@H](Cc3ccc(OCC(=O)O)cc3)NC(=O)[C@H](C)NC(=O)CSC[C@@H](C(=O)N[C@@H](CCN)C(=O)NCCOCCOCC(=O)NCCCCCCCCCCCCCCC(=O)O)NC(=O)[C@H](Cc3cnc[nH]3)NC(=O)[C@H](C(C)(C)O)NC(=O)[C@H](CC3CCCCC3)NC(=O)[C@H](CCN)NC(=O)[C@@H](CC(C)C)NC(=O)[C@H](CCCN)NC(=O)[C@H](Cc3ccc(OCC(=O)O)cc3)NC(=O)[C@H](Cc3ccc(-c4ccccc4)cc3)NC(=O)[C@H](Cc3ccc(OCC(=O)O)cc3)NC2=O)c1 [Compound 3851] ({CH2CO}-AY(Carboxymethyl)D[Phe(3-Me)]Y(Carboxymethyl)[Bip]Y(Carboxymethyl)[Orn][dL][Dab][Cha][Val(3-OH)]HC[Dab][AEEA]-{NH(CH2)14COOH}; thioether N-14)
The IC50 of the first is 2.3-fold higher: 282 nM for the first, 125 nM for the second. The second is the more potent here.

`CC(C)C[C@H]1NC(=O)[C@H](CCCN)NC(=O)[C@H](Cc2ccc(OCC(=O)O)cc2)NC(=O)[C@H](Cc2ccc(-c3ccccc3)cc2)NC(=O)[C@H](Cc2ccc(OCC(=O)O)cc2)NC(=O)[C@H](Cc2cccc(C(F)(F)F)c2)NC(=O)[C@H](CC(=O)O)NC(=O)[C@H](Cc2ccc(OCC(=O)O)cc2)NC(=O)[C@H](C)NC(=O)CSC[C@@H](C(=O)N[C@@H](CCN)C(=O)NCCCCCCCCCCCCCCC(=O)O)NC(=O)[C@H](Cc2cnc[nH]2)NC(=O)[C@H](C(C)(C)O)NC(=O)[C@H](CC2CCCCC2)NC(=O)[C@H](CCN)NC1=O` [Compound 3852] ({CH2CO}-AY(Carboxymethyl)D[Phe(3-CF3)]Y(Carboxymethyl)[Bip]Y(Carboxymethyl)[Orn][dL][Dab][Cha][Val(3-OH)]HC[Dab]-{NH(CH2)14COOH}; thioether N-14) showed an IC50 of 142 nM.
